Test results from US20240307351A1, “AGENT FOR ANTI-AGING OR FOR CELLULAR REJUVENATION” (TOHOKU UNIVERSITY, priority 2022, published 2024).

What was measured:
[1] = system: NDUFS4 homozygous knockout mice (Ndufs4−/−mice); assay: HE staining of brown adipose tissue of Ndufs4−/− mice; assay type: in vivo, mouse; conditions: 10 mg/day per kg, 50 days, compared with CMC administration group
Description: Compound #5 was administered to NDUFS4 homozygous knockout mice (Ndufs4−/−mice) (28 days old) at a dose of 10 mg/day per kg of mouse weight for 50 days ([Compound #5 administration group]).
(§1) In addition, CMC (carboxymethylcellulose) was administered to NDUFS4 homozygous knockout mice (Ndufs4−/−mice) at a dose of 10 mg/day per kg of mouse weight for 50 days ([CMC administration group; Control group]).
Since the NDUFS4 homozygous knockout mice are mice with abnormal mitochondrial function and the abnormal mitochondrial function is one of aging phenomena, the NDUFS4 homozygous knockout mice can be used as one type of aging model mice.

[2] = system: FABP4 Gene; assay: Quantitative PCR of FABP4 Gene in brown adipocytes of Ndufs4−/− mice; assay type: in vivo, mouse; conditions: 10 mg/day per kg, 50 days, vs CMC administration group
Description: Compound #5 was administered to NDUFS4 homozygous knockout mice (Ndufs4−/−mice) (4 weeks old) at a dose of 10 mg/day per kg of mouse weight for 50 days ([Compound #5 administration group]).
as §1
Brown adipocytes were collected from the mice of [Compound #5 administration group] and [CMC administration group]. Total RNA was extracted from the brown adipocytes, and cDNA was prepared therefrom and used for measurement of mRNA expression level. The measurement was performed by a quantitative PCR method. The expression level of mRNA was determined with a relative ratio to β-actin used as an internal standard. As primers and probes, the following commercially available products (manufactured by Thermo Fisher Scientific Inc., and the like) were used. • Mouse Acts (actin beta, β-actin) Mm02619580_g1, Cat #4331182 • Mouse Ucp1 (uncoupling protein 1), Mm00494069_m1, Cat #4331182 • Mouse Pparg (PPARγ, peroxisome proliferator activated receptor gamma), Mm00440945_m1, Cat #4331182p • Mouse Fabp4 (fatty acid binding protein 4), Mm00445880_m1, Cat #4331182

[3] = system: C57BL6 mice (92 weeks old); assay: Treadmill running test of aged mice; assay type: in vivo, mouse; conditions: aged C57BL6 mice (92 weeks old), oral, 50 mg/kg/day, 2 months
Description: (§2) Water-suspended Compound #5 was orally administered to C57BL6 mice (92 weeks old) at a dose of 50 mg/kg/day per kg of mouse weight for 2 months ([MA5 addition group], n=5). After 2 months of oral administration, the mice were 101 weeks old.
(§3) In addition, water was orally administered to C57BL6 mice (92 weeks old) for 2 months ([Vehicle group], n=5). After 2 months of oral administration, the mice were 101 weeks old.

[4] = system: muscle cells of aged mice; assay: RNA-Seq, pathway and ChIP-Atlas analysis of muscle cells of aged mice; assay type: in vivo, mouse; conditions: oral, 50 mg/kg/day, 2 months
Description: as §2, §3
RNA sequencing (RNA-Seq) analysis was performed on the muscle cells of aged mice in [MA5 addition group] and [Vehicle group] to identify genes whose expression levels changed (increased or decreased) in [MA5 addition group] and [Vehicle group] compared to the muscle cells of young mice before administration.
Based on the names of genes whose expression levels increased or decreased in the aged mice of [MA5 addition group] as compared with the aged mice of [Vehicle group] in the RNA sequence (RNA-Seq) analysis, pathway analysis of genes whose expression levels varied in muscle cells of the aged mice of [MA5 addition group] was performed.
The results of the names of the genes whose expression levels increased or decreased in the aged mice of [MA5 addition group] as compared with the aged mice of [Vehicle group] in the RNA sequence (RNA-Seq) analysis were used to perform integrated analysis with ChIP-Atlas to investigate transcription factors possibly related to these genes.

[5] = system: cochlear cells of the inner ear of Ndufs4 knockout mice; assay: RNA-Seq, pathway and ChIP-Atlas analysis of cochlear cells of Ndufs4 knockout mice; assay type: in vivo, mouse; conditions: oral, 50 mg/kg/day, 2 weeks
Description: Water-suspended Compound #5 was orally administered to Ndufs4 (NADH-ubiquinone oxidoreductase subunit 4) knockout mice (6 weeks old) at a dose of 50 mg/kg/day per kg of mouse weight for 2 weeks ([MA5 addition group], n=5).
In addition, water was orally administered to Ndufs4 knockout mice (6 weeks old) for 2 weeks ([Vehicle group], n=5).
RNA sequence (RNA-Seq) analysis was performed on cochlear cells of the inner ear of Ndufs4 knockout mice of [MA5 addition group] and [Vehicle group] described above, and genes whose expression levels changed (increased or decreased) in [MA5 addition group] as compared with [Vehicle group] were identified. Based on the names of the genes, pathway analysis was performed on genes whose expression has varied in the inner ear cells of the Ndufs4 knockout mice in [MA5 addition group].
The results of the names of the genes whose expression levels increased or decreased in the Ndufs4 knockout mice of [MA5 addition group] as compared with the Ndufs4 knockout mice of [Vehicle group] in the RNA sequence (RNA-Seq) analysis were used to perform integrated analysis with ChIP-Atlas to investigate transcription factors possibly related to these genes.

[6] = system: fibrosis-related genes (aSMA and Colla1); assay: Real-time PCR of fibrosis-related genes in renal tissue of α-Klotho gene-deficient mice; assay type: in vivo; conditions: oral, 10 mg/kg mouse weight/day, 28 to 60 days old
Description: Water-suspended Compound #5 was orally administered to α-Klotho gene-deficient mice (28 days old) at a dose of 10 mg/kg mouse weight/day until 60 days old (Klotho homo KO mouse administration group, n=3).
In addition, water was orally administered to wild-type mice (28 days old) and α-Klotho gene-deficient mice (28 days old) until 60 days old (n=3 for each of the wild-type non-administrated group and the Klotho homo KO mouse non-administrated group).
Renal tissue was collected from each 60-day-old mouse according to a standard method, total RNA was extracted using a commercially available column extraction kit (RNeasy Micro Kit, manufactured by QIAGEN), and cDNA was synthesized from 1 μg of total RNA using ReverTra Ace(manufactured by TOYOBO CO., Ltd.). Thereafter, to quantify mRNA derived from two types of fibrosis-related genes (aSMA and Colla1) and mRNA derived from GAPDH as an internal standard, real-time PCR was performed according to a standard method using QuantStudio 5 Real-time PCR system (manufactured by Applied Biosystems) as a measuring instrument and THUNDERBIRD SYBR qPCR MasterMix (manufactured by TOYOBO CO., Ltd.) as a reaction liquid.

## O=C(CC(C(=O)O)c1c[nH]c2ccccc12)c1ccc(F)cc1F (stereo not shown) [Compound #5, 4-(2,4-difluorophenyl)-2-(1H-indole-3-yl)-4-oxo-butanoic acid]
[1]
  size of lipid droplets in brown adipose tissue: decrease
[2]
  expression of FABP4 Gene: higher
[3]
  running time on a treadmill: not reduced
[3]; compared to Vehicle group
  time until exhaustion (percentage of mice that continue running): significantly improved
[4]
  MAPK cascade (pathway analysis): inhibition
  insulin signaling pathway (pathway analysis): enhancement
  longevity regulating pathway (pathway analysis): enhancement
[4]; Table 1
  transcription factors associated with genes whose expression was increased (ChIP-Atlas): FOXO1 known as longevity genes, KLF4, which is one of reprogramming factors necessary for the production of iPS cells, and KLF2 and KLF5
[4]; vs Vehicle group
  expression level of Klf4 Gene: significantly increased
  expression level of Myc Gene: significantly increased
  expression level of Nanog Gene: tended to increase
  expression level of Pou5f1 (Oct4) Gene: tended to increase
  expression level of Sox2 Gene: significantly increased
[5]
  IGF1 signaling pathway (pathway analysis): enhanced
[5]; Table 5
  transcription factors related to genes whose expression increased (ChIP-Atlas): SOX2 and MYC, which are reprogramming factors necessary for the production of iPS cells, and POU2F1 (OCT1)
[6]
  renal fibrosis progressing with aging (aSMA and Colla1 mRNA): inhibited
